{"source": "paper PMC8302504", "about": "“Efficacy of Fenfluramine and Norfenfluramine Enantiomers and Various Antiepileptic Drugs in a Zebrafish Model of Dravet Syndrome” (Neurochemical Research, 2021)", "origin": "cited, not measured here", "conditions": "5 dpf zebrafish larvae, 1 h incubation with 15 µg/mL; cited from earlier work"}
{"smiles": "O=C(CCCN1CCC(O)(c2ccc(Cl)cc2)CC1)c1ccc(F)cc1", "note": "[haloperidol]", "values": [{"measurement": "head uptake (recovered concentration)", "result": 21.6, "unit": "µg/g"}]}
